The values below come from patent US4709079A, “Polyprenyl compounds, process for the production thereof and medicines containing same” (priority 1981, dated 1987).

Series [1] relates to carrageenan-induced edema. As to the kind of experiment: carrageenan-induced edema controlling test, sole edema method (Experiments 1 and 2). The class given is in vivo, male S.D. rats. To be noted: for Control rate (carrageenan-induced edema): groups of 8 rats; for ED50: Rattus norvegicus, po, read-out: Median effective dose for carrageenan-induced edema ED50. The method, then:
Effects of controlling carrageenan-induced edema were examined by the sole edema method, see Winter et al.; Pro. […] Exp. Biol. Med., 111, 544 (1962), wherein carrageenan was used as an inflaming agent and male S.D. rats weighing 150-180 g were used as the test animals (each group comprised 5 rats).
The test compound was dissolved in sesame oil and the solution was administered perorally to the rats 6 hours before the administration of the inflaming agent. The volumes of the hind leg soles were measured 3 hours after the administration of the inflaming agent. […] [formula] wherein a is the volume of the hind leg sole before the edema induction and b is the corresponding value after the edema induction. [formula] wherein c represents the average edema rate of the control group and d represents the edema rate of each animal to which the test compound was given.
Carrageenan-induced edema control rates were determined according to formula (2) in the same manner as in Experiment 1 except that each group comprised 8 rats.
On the technique in general: In the carrageenan paw model, swelling and tenderness develop within hours.

Series [2] deals with adjuvant-induced arthritis. Description: adjuvant-induced arthritis controlling test. The class given is in vivo, F-344 rats. To be noted: po; for ED50: Rattus norvegicus, 456 h, read-out: Median effective dose for adjuvant-induced arthritis ED50. The method, then:
Arthritis was induced in F-344 rates (6 weeks) (Japanese Charles Liver) according to the method of Winder, C. V., et al; Arthritis Rheum. 12, 472-482 (1969) and the controlling effects were examined. 0.05 ml. of a suspension (6 mg/ml) of Mycobacterium butyricum (Difco) in liquid paraffin was in]ected in the sole of the right leg of each rat to induce arthritis. […] The former was dissolved in sesame oil and the latter was suspended in acacia. The administration of the test compounds was started on the same day as the adjuvant injection. The test compounds were administered perorally every day for 19 days.

Series [3] is described as follows: continuous peroral administration for one week. The class given is in vivo, SD rats. The settings on record: 50 mg/kg per day and 200 mg/kg per day continuously for one week.
Another series relates to gastric membranes. As to the kind of experiment: effects on gastric membranes of normal rats (ulceration). The format is in vivo, Wistar ST rats. The text has this: Four hours thereafter, the ulceration conditions in the gastric membranes were examined.
A further series can be described thus: in vivo. To be noted: rat, po, peroral, 20% solution in sesame oil.
The subject of series [4] is cold restraint stress-induced ulcer, gastric membranes. As to the kind of experiment: worsening of cold restraint stress-induced ulcer. The format is in vivo, Wistar rats. The method, then: Cold restraint stress was applied to Wistar rats (7 weeks old) by a conventional method. […] Two hours after the application of stress, the length of ulcer (ulcer index) in the gastric membranes was measured.

The conditions of series [5]: comparison value for Indomethacin; species, sex and source not given; cited from earlier work.
[6] abbreviates: peroral, 6 hours before inflaming agent, measured 3 hours after, groups of 5 rats.

The structures appear in SMILES notation. Where two headings read alike, the source gives them in different places.

Consider `CC(C)=CCCC(C)=CCCC(C)=CCCC(C)=CCOC(=O)Cc1ccccc1Nc1c(Cl)cccc1Cl` [Compound A, 2-[(2,6-Dichlorophenyl)amino]phenylacetic acid 3,7,11,15-tetramethyl-2,6,10,14-hexadecatetraenyl ester], for which the “Control rate (carrageenan-induced edema)” value in series [1] (dose 18 mg/kg, peroral) worked out at 34%.
`CC(C)=CCCC(C)=CCCC(C)=CCOC(=O)C(C)c1ccc(CC(C)C)cc1` (stereo not shown) [Compound B, 2-(4-isobutylphenyl)propionic acid 3,7,11-trimethyl-2,6,10-dodecatrienyl ester]: the “Control rate (carrageenan-induced edema)” value in series [1] (dose 60 mg/kg, peroral) came out at 30%.
On to `COc1ccc2c(c1)c(CC(=O)OCC=C(C)CCC=C(C)CCC=C(C)C)c(C)n2C(=O)c1ccc(Cl)cc1` [Compound C, 1-(p-Chlorobenzoyl)-2-methyl-5-methoxy-3-indolylacetic acid 3,7,11-trimethyl-2,6,10-dodecatrienyl ester], for which the ED50 in series [1] (setting [6]) was found to be 6.5 mg/kg; in series [2] (peroral, every day for 19 days), 3.6 mg/kg. Also, the “Control rate (carrageenan-induced edema)” value in series [1] (dose 9 mg/kg, peroral) is 40%; in series [1] (dose 18 mg/kg, peroral), 42%. Moreover, the health problem entry in series [3] was “no health problem was observed”. Also, the “Number of ulcerated rats” value in the series on gastric membranes (dose 153 mg/kg, peroral, 4 hours, fasted normal rats) is 0/5.
For `COc1ccc2c(c1)c(CC(=O)OCC=C(C)CCC=C(C)CCC=C(C)CCC=C(C)C)c(C)n2C(=O)c1ccc(Cl)cc1` [Compound D, 1-(p-Chlorobenzoyl)-2-methyl-5-methoxy-3-indolylacetic acid 3,7,11,15-tetramethyl-2,6,10,14-hexadecatetraenyl ester], the “Control rate (carrageenan-induced edema)” value in series [1] (dose 9 mg/kg, peroral) was determined as 22%; in series [1] (dose 18 mg/kg, peroral), 22%. Moreover, the LD50 lay within 1530 to 3160 mg/kg in “in vivo” (female SD rats, read-out: LD50 female) and 2000 to 2520 mg/kg in “in vivo” (male SD rats, read-out: LD50 male). The health problem result in series [3] is listed as “no health problem was observed”.
On to `CC(=O)Oc1ccccc1C(=O)OCC=C(C)CCC=C(C)C` [Compound E, Acetylsalicylic acid 3,7-dimethyl-2,6-octadienyl ester], for which, in series [1] (dose 400 mg/kg, peroral), the “Control rate (carrageenan-induced edema)” value amounted to 52%.
For `CC(C)Cc1ccc(C(C)C(=O)O)cc1` (stereo not shown) [Ibuprofen, reference compound], in series [1] (setting [6]), the median effective dose (ED50) came out at 7.7 mg/kg.
For the compound `COc1ccc2c(c1)c(CC(=O)O)c(C)n2C(=O)c1ccc(Cl)cc1` [Indomethacin], the ED50 in series [1] (3 h) was 2.9 mg/kg; in series [2] it was 1.5 mg/kg. In addition, the “Control rate (carrageenan-induced edema)” value in series [1] (dose 9 mg/kg, peroral) is reported as 38%. In addition, in series [2] (rat, in vivo), the “LD50/ED50 ratio in the adjuvant-induced arthritis test” value is on record as 14-15. For the same compound, the “Ulcer index (mean ± S.E.)” value in the series on gastric membranes (dose 20 mg/kg, peroral, 4 hours, fasted normal rats) turned out to be 18.0 ± 3.2. Further, the “Number of ulcerated rats” value in the series with gastric membranes (rat, in vivo, 20 mg/kg) is on record as 5/5. Moreover, the “Ulcer index (Mean ± S.E.), length of ulcer” value in series [4] (dose 20.0 mg/kg, peroral, two hours after application of stress) was determined as 36.5 ± 7.3. Moreover, in series [4] (rat, in vivo), the “macroscopic observation of gastric ulcer” value is “linear ulcer accompanied with copious bleeding was clearly recognized”. In series [4] (rat, in vivo), the stress-induced ulcer entry is “increased significantly”. In addition, the LD50 in series [5] is 18 mg/kg.

A word on the ED50: it is the midpoint of the dose-response relation. In general, LD50 refers to the dose expected to kill half of the subjects tested.
